EC50 data for 19 compounds are collected here from US10844049B2, “GLP-1R agonists and uses thereof” (QILU REGOR THERAPEUTICS INC., priority 2018, dated 2020).

pEC50: −log10 of the molar value. Bounds are passed on as bounds.

The target in this experiment is GLP1R (Homo sapiens, UniProt P43220). Nature of the experiment: GLP1R cAMP HTRF assay, HEK293/GLP-1R/CRE/Luc (HEK293T cells). The format is cell-based. As to conditions: read-out: EC50. On the procedure: GLP-1R-mediated agonist activity was determined with a cell-based functional assay utilizing an HTRF (Homogeneous Time-Resolved Fluorescence) cAMP detection kit (cAMP Dynamic 2 Assay Kit; CisBio cat #62AM4PEC) that measures cAMP levels in the cell. The method is a competitive immunoassay between native cAMP produced by the cells and exogenous cAMP labeled with the dye d2. The tracer binding is visualized by a mAb anti-cAMP labeled with Cryptate. The specific signal (i.e., energy transfer) is inversely proportional to the concentration of cAMP in either standard or experimental sample.
GLP1R, sequence (P43220 24-463): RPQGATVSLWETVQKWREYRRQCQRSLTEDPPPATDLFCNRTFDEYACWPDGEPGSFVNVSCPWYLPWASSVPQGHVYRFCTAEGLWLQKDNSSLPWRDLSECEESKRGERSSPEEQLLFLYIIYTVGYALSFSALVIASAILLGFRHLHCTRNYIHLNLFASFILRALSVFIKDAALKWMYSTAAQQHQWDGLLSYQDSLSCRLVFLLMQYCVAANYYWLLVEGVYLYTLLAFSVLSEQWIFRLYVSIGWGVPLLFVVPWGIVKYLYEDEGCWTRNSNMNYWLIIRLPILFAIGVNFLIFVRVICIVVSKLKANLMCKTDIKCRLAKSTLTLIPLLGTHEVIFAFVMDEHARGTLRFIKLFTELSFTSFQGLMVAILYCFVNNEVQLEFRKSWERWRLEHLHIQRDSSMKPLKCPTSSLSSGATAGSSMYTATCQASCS
A cell line stably expressing the receptor was isolated.
Varying concentrations of each compound to be tested (in DMSO) were diluted in DMSO to obtain 200× compound working solution first and then 50 nl compounds were added to a white 384-well assay plate (Greiner 784075) with ECHO. The final DMSO concentration was 0.5%. The compound concentration range may be adjusted at any time.
Cells were removed from cryopreservation, re-suspended in 5 mL of Dulbecco's Phosphate Buffered Saline (DPBS-Sigma Cat # D8537) and centrifuged at 900 g for 5 min at 22° C. The cell pellet was then re-suspended in 1 mL of assay buffer [DPBS with 500 μM IBMX (Sigma #15879) and 0.1% BSA (Sigma # A1933). IBMX and BSA were freshly added on the day of assay]. A 10 μL sample of the cell suspension was counted on an Invitrogen Countess II to determine cell viability and cell count per mL. The remaining cell suspension was then adjusted with assay buffer to deliver 1000 viable cells per well using a Matrix Combi Multidrop reagent dispenser. 10 μL cell suspensions were added to each well of the assay plate which already contains compound. The plate was sealed and incubated at 37° C. with 5% CO2 for 30 minutes.
Following the 30 minute incubation, 5 μL of labeled d2 cAMP and 5 μL of anti-cAMP antibody (both diluted 1:20 in cell lysis buffer; as described in the manufacturer's assay protocol) were added to each well of the assay plate. The plates w ere then incubated at room temperature and after 60 minutes, changes in the HTRF signal were read with an Envision multi-label plate reader using excitation of 330 nm and emissions of 615 and 665 nm. Raw data were converted to nM cAMP by interpolation from a cAMP standard curve (as described in the manufacturer's assay protocol) and the percent effect was determined relative to a saturating concentration of the full agonist GLP-17-37 (10 nM) included on each plate. EC50 determinations were made from agonist dose-response curves analyzed with a curve fitting program using a 4-parameter logistic dose response equation.
3) Anti-cAMP antibody-cryptate working solution preparation • c) The lyophilisate was reconstituted with appropriate amount of distilled water according to manufacturer's instruction to make working stock which can be aliquoted and frozen (−20° C.). • d) The working stock solution was diluted 1:20 in the conjugate and lysis buffer before use. Procedures Procedures for Cell Suspension Preparation • 1. Frozen cells were thawed very briefly in a 37° C. water bath under sterile conditions until just before ice completely melt (for about 1 minute) with a continuous agitation. Caution was taken because a longer incubation could result in cell death. • 2. DMSO was removed from the media by carefully transferring thawed cells to a sterile 15/50 mL tube, filling a tube with 10-50 mL of complete media pre-warmed to 37° C., and allowing the cells to sit 5 min before centrifuging at 900 rpm for 5 minutes for cell collection. • 3. The cells were resuspended with assay buffer. • 4. For stable GLP1-R assay, the optimized cell density is 1000 cells/well. Caution was taken because cell density optimization was crucial and needed to be optimized in different laboratories. The level of cAMP produced by the cells must fall within the linear range of the standard curve.
Turning to `O=C(O)c1ccc2nc(CN3CC=C(c4cncc(OCc5ccc(Cl)cc5F)c4)CC3)n(C[C@@H]3CCO3)c2c1` [Compound 32, (S)-2-((5-((4-chloro-2-fluorobenzyl)oxy)-3′,6′-dihydro-[3H′-bipyridin]-1′(2′H)-yl)methyl)-1-(oxetan-2-ylmethyl)-1 h-benzo[d]imidazole-6-carboxylic acid], the pEC50 is at least 6.00. In the case of `O=C(O)c1ccc2nc(CN3CC=C(c4nccc(OCc5ccc(Cl)cc5F)n4)CC3)n(C[C@@H]3CCO3)c2c1` [Compound 33, (S)-2-((4-(4-(4-chloro-2-fluorobenzyloxy)pyrimidin-2-yl)-5,6-dihydropyridin-1(2H)-yl)methyl)-1-(oxetan-2-ylmethyl)-1 h-benzo[d]imidazole-6-carboxylic acid] it was at least 7.82; in that of `O=C(O)c1ccc2nc(CN3CCN(c4cc5ccccc5c(OCc5ccc(Cl)cc5F)n4)CC3)n(C[C@@H]3CCO3)c2c1` [Compound 36, (S)-2-((4-(1-((4-chloro-2-fluorobenzyl)oxy)isoquinolin-3-yl)piperazin-1-yl)methyl)-1-(oxetan-2-ylmethyl)-1 h-benzo[d]imidazole-6-carboxylic acid], at least 6.00.

With `O=C(O)c1ccc2nc(CN3CC=C(c4ccc5c(n4)N(CCc4cccc(Cl)c4)CCO5)CC3)n(C[C@@H]3CCO3)c2c1` [Compound 37, (S)-2-((4-(4-(3-chlorophenethyl)-3,4-dihydro-2 h-pyrido[3,2-b][1,4]oxazin-6-yl)-5,6-dihydropyridin-1(2H)-yl)methyl)-1-(oxetan-2-ylmethyl)-1 h-benzo[d]imidazole-6-carboxylic acid], the pEC50 was under 6.00. In the case of `O=C(O)c1ccc2nc(CN3CC=C(c4ccc5c(n4)N(Cc4ccc(Cl)cc4F)C(=O)CO5)CC3)n(C[C@@H]3CCO3)c2c1` [Compound 38, (S)-2-((4-(4-(4-chloro-2-fluorobenzyl)-3-oxo-3,4-dihydro-2 h-pyrido[3,2-b][1,4]oxazin-6-yl)-5,6-dihydropyridin-1(2H)-yl)methyl)-1-(oxetan-2-ylmethyl)-1 h-benzo[d]imidazole-6-carboxylic add] it was at least 6.00. As for `O=C(O)c1ccc2nc(CN3CC=C(c4cccc(N5CCc6cc(Cl)ccc6C5)n4)CC3)n(C[C@@H]3CCO3)c2c1` [Compound 39, (S)-2-((6-(6-chloro-3,4-dihydroisoquinolin-2(1H)-yl)-3′,6′-dihydro-[2,4′-bipyridin]-1′(2′H)-yl)methyl)-1-(oxetan-2-ylmethyl)-1 h-benzo[d]imidazole-6-carboxylic add], the pEC50 was at least 6.82. As to `O=C(O)c1ccc2nc(CN3CC=C(c4cccc(OCc5ccc(Cl)cc5F)c4F)CC3)n(C[C@@H]3CCO3)c2c1` [Compound 40, (S)-2-((4-(3-(4-chloro-2-fluorobenzyloxy)-2-fluorophenyl)-5,6-dihydropyridin-1(2H)-yl)methyl)-1-(oxetan-2-ylmethyl)-1 h-benzo[d]imidazole-6-carboxylic add], the pEC50 is at least 6.00. In the case of `O=C(O)c1ccc2nc(CN3CC=C(c4cc(F)c(F)c(OCc5ccc(Cl)cc5F)c4)CC3)n(C[C@@H]3CCO3)c2c1` [Compound 41, (S)-2-((4-(3-(4-chloro-2-fluorobenzyloxy)-4,5-difluorophenyl)-5,6-dihydropyridin-1(2H)-yl)methyl)-1-(oxetan-2-ylmethyl)-1 h-benzo[d]imidazole-6-carboxylic acid] it was at least 7.82.

For `O=C(O)c1ccc2nc(CN3CC=C(c4cc(F)cc(OCc5ccc(Cl)cc5F)c4)CC3)n(C[C@@H]3CCO3)c2c1` [Compound 42, (S)-2-((4-(3-((4-chloro-2-fluorobenzyl)oxy)-5-fluorophenyl)-3,6-dihydropyridin-1(2H)-yl)methyl)-1-(oxetan-2-ylmethyl)-1 h-benzo[d]imidazole-6-carboxylic acid], the pEC50 is at least 7.82. For the compound `O=C(O)c1ccc2nc(CN3CC=C(c4cc(OCc5ccc(Cl)cc5F)ccc4F)CC3)n(C[C@@H]3CCO3)c2c1` [Compound 43, (S)-2-((4-(5-((4-chloro-2-fluorobenzyl)oxy)-2-fluorophenyl)-3,6-dihydropyridin-1(2H)-yl)methyl)-1-(oxetan-2-ylmethyl)-1H-benzo[d]imidazole-6-carboxylic add], the pEC50 is at least 7.82. With `O=C(O)c1ccc2nc(CN3CC=C(c4cccc(OCc5ccc(Cl)cc5)n4)CC3)n(C[C@@H]3CCO3)c2c1` [Compound 44, (S)-2-((6-((4-chlorobenzyl)oxy)-3′,6′-dihydro-[2,4′-bipyridin]-1′(2′H)-yl)methyl)-1-(oxetan-2-ylmethyl)-1H-benzo[d]imidazole-6-carboxylic acid] the figure was at least 7.82; with `O=C(O)c1ccc2nc(CN3CC=C(c4cc5cc[nH]c5c(OCc5ccc(Cl)cc5F)n4)CC3)n(C[C@@H]3CCO3)c2c1` [Compound 48, (S)-2-((4-(7-((4-chloro-2-fluorobenzyl)oxy)-1 h-pyrrolo[2,3-c]pyridin-5-yl)-3,6-dihydropyridin-1(2H)-yl)methyl)-1-(oxetan-2-ylmethyl)-1 h-benzo[d]imidazole-6-carboxylic acid], at least 6.82.

Turning to `O=C(O)c1ccc2cc(CN3CCN(c4cccc(OCc5ccc(Cl)cc5F)n4)CC3)n(C[C@@H]3CCO3)c2c1` [Compound 49, (S)-2-((4-(6-(4-chloro-2-fluorobenzyloxy)pyridin-2-yl)piperazin-1-yl)methyl)-1-(oxetan-2-ylmethyl)-1 h-indole-6-carboxylic acid], the pEC50 was under 6.00. With `Cn1c(CN2CCN(c3cccc(OCc4ccc(Cl)cc4F)n3)CC2)cc2ccc(C(=O)O)cc21` [Compound 50, 2-((4-(6-(4-chloro-2-fluorobenzyloxy)pyridin-2-yl)piperazin-1-yl)methyl)-1-methyl-1 h-indole-6-carboxylic add] the figure was under 6.00. Consider `O=C(O)c1ccc2nc(CN3CC=C(n4cccc(OCc5ccc(Cl)cc5F)c4=O)CC3)n(C[C@@H]3CCO3)c2c1` [Compound 51, (S)-2-((4-(3-(4-chloro-2-fluorobenzyloxy)-2-oxopyridin-1(2H)-yl)-5,6-dihydropyridin-1(2H)-yl)methyl)-1-(oxetan-2-ylmethyl)-1 h-benzo[d]imidazole-6-carboxylic acid], for which the pEC50 was under 6.00. As to `O=C(O)c1ccc2nc(CN3CCC(n4c(=O)n(CCc5ccc(Cl)cc5F)c5ccccc54)CC3)n(C[C@@H]3CCO3)c2c1` [Compound 52, (S)-2-((4-(3-(4-chloro-2-fluorophenethyl)-2-oxo-2,3-dihydro-1 h-benzo[d]imidazol-1-yl)piperidin-1-yl)methyl)-1-(oxetan-2-ylmethyl)-1 h-benzo[d]imidazole-6-carboxylic acid], the pEC50 was under 6.00. With `O=C(O)c1ccc2nc(CN3CCC(N4Cc5ccccc5N(CCc5ccc(Cl)cc5F)C4=O)CC3)n(C[C@@H]3CCO3)c2c1` [Compound 53, (S)-2-((4-(1-(4-chloro-2-fluorophenethyl)-2-oxo-1,4-dihydroquinazolin-3(2H)-yl)piperidin-1-yl)methyl)-1-(oxetan-2-ylmethyl)-1H-benzo[d]imidazole-6-carboxylic acid] the figure was under 6.00; with `O=C(O)c1ccc2nc(CN3CCC(N4CCc5ccc(-c6ccc(Cl)cc6F)cc5C4=O)CC3)n(C[C@@H]3CCO3)c2c1` [Compound 54, (S)-2-((4-(7-(4-chloro-2-fluorophenyl)-1-oxo-3,4-dihydroisoquinolin-2(1H)-yl)piperidin-1-yl)methyl)-1-(oxetan-2-ylmethyl)-1 h-benzo[d]imidazole-6-carboxylic acid], under 6.00.

For the compound `O=C(O)c1ccc2nc(CN3CCN(c4cccc(OCc5ccc(Cl)cc5F)n4)C(=O)C3)n(C[C@@H]3CCO3)c2c1` [Compound 55, (S)-2-((4-(6-((4-chloro-2-fluorobenzyl)oxy)pyridin-2-yl)-3-oxopiperazin-1-yl)methyl)-1-(oxetan-2-ylmethyl)-1H-benzo[d]imidazole-6-carboxylic acid], the negative-log EC50 (pEC50) was at least 7.82.

One may read the pEC50 as the negative decadic logarithm of the EC50, by convention in mol/L.
